Results: ChEMBL document CHEMBL4028801, “A multifactorial approach to hepatobiliary transporter assessment enables improved therapeutic compound development” (Toxicol Sci, 2013)

Key:
[1] = Ratio of drug concentration at steady state in human at 100 to 200 mg, po TID after 8 hrs to IC50 for human MRP3 overexpressed in Sf9 insect cells; assay type: ADME, organism-based; conditions: in vivo
[2] = AUC in human at 100 to 200 mg, po TID after 8 hrs; assay type: ADME, organism-based; conditions: in vivo
[3] = Ratio of drug concentration at steady state in human at 100 to 200 mg, po TID after 8 hrs to IC50 for human BSEP overexpressed in Sf9 insect cells; assay type: ADME, organism-based; conditions: in vivo
Bile salt export pump = Bile salt export pump (Homo sapiens, UniProt O95342); test: Inhibition of human BSEP overexpressed in Sf9 cell membrane vesicles assessed as uptake of [3H]-taurocholate in presence of ATP measured after 15 to 20 mins by membrane vesicle transport assay; assay type: ADME, cell-based
[4] = biological target: T1, ATP-binding cassette sub-family C member 4 (Homo sapiens, UniProt O15439); test: Inhibition of human MRP4 overexpressed in Sf9 cell membrane vesicles assessed as uptake of [3H]-estradiol-17beta-D-glucuronide in presence of ATP and GSH measured after 20 mins by membrane vesicle transport assay; assay type: ADME, cell-based
T1 sequence (O15439 whole entry): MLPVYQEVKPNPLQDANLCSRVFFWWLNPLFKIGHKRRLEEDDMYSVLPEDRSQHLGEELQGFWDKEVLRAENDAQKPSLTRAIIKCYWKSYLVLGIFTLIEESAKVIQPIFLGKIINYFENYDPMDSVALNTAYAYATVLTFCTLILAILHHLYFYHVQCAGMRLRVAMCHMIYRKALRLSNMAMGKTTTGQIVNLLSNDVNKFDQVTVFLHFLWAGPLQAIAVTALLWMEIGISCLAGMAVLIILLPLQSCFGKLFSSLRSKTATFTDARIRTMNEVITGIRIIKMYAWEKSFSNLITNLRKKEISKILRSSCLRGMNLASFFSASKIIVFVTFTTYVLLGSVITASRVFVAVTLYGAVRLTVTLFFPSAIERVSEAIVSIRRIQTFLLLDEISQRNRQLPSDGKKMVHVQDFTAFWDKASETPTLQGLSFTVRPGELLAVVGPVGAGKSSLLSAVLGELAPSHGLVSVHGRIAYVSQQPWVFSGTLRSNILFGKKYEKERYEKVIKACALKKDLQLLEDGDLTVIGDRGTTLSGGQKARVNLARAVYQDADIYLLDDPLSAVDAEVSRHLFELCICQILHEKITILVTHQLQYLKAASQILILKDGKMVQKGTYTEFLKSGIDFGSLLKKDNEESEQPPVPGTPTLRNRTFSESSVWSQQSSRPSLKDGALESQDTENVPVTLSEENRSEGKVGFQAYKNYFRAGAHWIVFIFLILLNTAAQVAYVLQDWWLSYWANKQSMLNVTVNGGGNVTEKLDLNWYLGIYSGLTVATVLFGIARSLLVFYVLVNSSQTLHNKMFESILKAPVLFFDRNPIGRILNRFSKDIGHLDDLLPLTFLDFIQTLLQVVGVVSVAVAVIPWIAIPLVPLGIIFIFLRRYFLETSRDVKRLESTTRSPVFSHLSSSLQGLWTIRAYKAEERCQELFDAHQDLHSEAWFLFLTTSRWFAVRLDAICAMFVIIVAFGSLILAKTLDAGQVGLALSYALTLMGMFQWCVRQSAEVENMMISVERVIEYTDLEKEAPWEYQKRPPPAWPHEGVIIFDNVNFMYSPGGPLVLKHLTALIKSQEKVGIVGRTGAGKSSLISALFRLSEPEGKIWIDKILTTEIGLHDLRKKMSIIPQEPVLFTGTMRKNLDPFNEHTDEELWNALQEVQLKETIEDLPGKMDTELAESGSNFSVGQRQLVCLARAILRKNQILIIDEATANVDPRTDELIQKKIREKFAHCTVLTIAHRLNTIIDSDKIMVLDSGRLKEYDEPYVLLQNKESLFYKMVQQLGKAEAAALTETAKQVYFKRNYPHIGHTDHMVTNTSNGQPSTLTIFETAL

[5] = Ratio of drug concentration at steady state in human at 100 to 200 mg, po TID after 8 hrs to IC50 for human MRP4 overexpressed in Sf9 insect cells; assay type: ADME, organism-based; conditions: in vivo
[6] = Drug concentration at steady state in human at 100 to 200 mg, po TID after 8 hrs; assay type: ADME, organism-based; conditions: in vivo, read-out: Css
[7] = biological target: ATP-binding cassette sub-family C member 3 (Homo sapiens, UniProt O15438); test: Inhibition of human MRP3 overexpressed in Sf9 insect cell membrane vesicles assessed as uptake of [3H]-estradiol-17beta-D-glucuronide in presence of ATP and GSH measured after 10 mins by membrane vesicle transport assay; assay type: ADME, cell-based
[8] = Ratio of drug concentration at steady state in patient with osteomyelitis at 1500 mg, po QD after 24 hrs to IC50 for human BSEP overexpressed in Sf9 insect cells; assay type: ADME, organism-based; conditions: in vivo
[9] = AUC in patient with osteomyelitis at 1500 mg, po QD after 24 hrs; assay type: ADME, organism-based; set-up: time < 24 hr, dose 1500 mg, route oral; conditions: human, in vivo
[10] = biological target: ATP-binding cassette sub-family C member 2 (Homo sapiens, UniProt Q92887); test: Inhibition of human MRP2 overexpressed in Sf9 cell membrane vesicles assessed as uptake of [3H]-estradiol-17beta-D-glucuronide in presence of ATP and GSH measured after 20 mins by membrane vesicle transport assay
[11] = Drug concentration at steady state in patient with osteomyelitis at 1500 mg, po QD after 24 hrs; assay type: ADME, organism-based; conditions: human, in vivo, read-out: Css
[12] = AUC in human at 1 to 1.5 g, po BID after 12 hrs; assay type: ADME, organism-based; conditions: in vivo
[13] = Ratio of drug concentration at steady state in human at 1 to 1.5 g, po BID after 12 hrs to IC50 for human BSEP overexpressed in Sf9 insect cells; assay type: ADME, organism-based; conditions: in vivo
[14] = Drug concentration at steady state in human at 1 to 1.5 g, po BID after 12 hrs; assay type: ADME, organism-based; conditions: in vivo, read-out: Css
[15] = Ratio of drug concentration at steady state in human at 1 to 1.5 g, po BID after 12 hrs to IC50 for human MRP4 overexpressed in Sf9 insect cells; assay type: ADME, organism-based; conditions: in vivo
[16] = Drug concentration at steady state in human at 43 to 130 mg, po QD after 24 hrs; assay type: ADME, organism-based; conditions: in vivo, read-out: Css
clinical = conditions: human, in vivo, po
[17] = AUC in human at 600 mg, po BID after 12 hrs; assay type: ADME, organism-based; set-up: dose 600 mg, time < 12 hr, route oral; conditions: in vivo
[18] = Drug concentration at steady state in human at 600 mg, po BID after 12 hrs; assay type: ADME, organism-based; conditions: in vivo, read-out: Css
Homo sapiens = test: Drug concentration at steady state in human at 135 to 175 mg/m2, iv administered as infusion for 3 or 24 hrs measured after 1 hr; assay type: ADME, organism-based; conditions: in vivo
[19] = AUC in human at 135 to 175 mg/m2, iv administered as infusion for 3 or 24 hrs measured after 1 hr; assay type: ADME, organism-based; set-up: time < 1 hr, route intravenous; conditions: in vivo

ATP-binding cassette sub-family C member 3, sequence (O15438 whole entry): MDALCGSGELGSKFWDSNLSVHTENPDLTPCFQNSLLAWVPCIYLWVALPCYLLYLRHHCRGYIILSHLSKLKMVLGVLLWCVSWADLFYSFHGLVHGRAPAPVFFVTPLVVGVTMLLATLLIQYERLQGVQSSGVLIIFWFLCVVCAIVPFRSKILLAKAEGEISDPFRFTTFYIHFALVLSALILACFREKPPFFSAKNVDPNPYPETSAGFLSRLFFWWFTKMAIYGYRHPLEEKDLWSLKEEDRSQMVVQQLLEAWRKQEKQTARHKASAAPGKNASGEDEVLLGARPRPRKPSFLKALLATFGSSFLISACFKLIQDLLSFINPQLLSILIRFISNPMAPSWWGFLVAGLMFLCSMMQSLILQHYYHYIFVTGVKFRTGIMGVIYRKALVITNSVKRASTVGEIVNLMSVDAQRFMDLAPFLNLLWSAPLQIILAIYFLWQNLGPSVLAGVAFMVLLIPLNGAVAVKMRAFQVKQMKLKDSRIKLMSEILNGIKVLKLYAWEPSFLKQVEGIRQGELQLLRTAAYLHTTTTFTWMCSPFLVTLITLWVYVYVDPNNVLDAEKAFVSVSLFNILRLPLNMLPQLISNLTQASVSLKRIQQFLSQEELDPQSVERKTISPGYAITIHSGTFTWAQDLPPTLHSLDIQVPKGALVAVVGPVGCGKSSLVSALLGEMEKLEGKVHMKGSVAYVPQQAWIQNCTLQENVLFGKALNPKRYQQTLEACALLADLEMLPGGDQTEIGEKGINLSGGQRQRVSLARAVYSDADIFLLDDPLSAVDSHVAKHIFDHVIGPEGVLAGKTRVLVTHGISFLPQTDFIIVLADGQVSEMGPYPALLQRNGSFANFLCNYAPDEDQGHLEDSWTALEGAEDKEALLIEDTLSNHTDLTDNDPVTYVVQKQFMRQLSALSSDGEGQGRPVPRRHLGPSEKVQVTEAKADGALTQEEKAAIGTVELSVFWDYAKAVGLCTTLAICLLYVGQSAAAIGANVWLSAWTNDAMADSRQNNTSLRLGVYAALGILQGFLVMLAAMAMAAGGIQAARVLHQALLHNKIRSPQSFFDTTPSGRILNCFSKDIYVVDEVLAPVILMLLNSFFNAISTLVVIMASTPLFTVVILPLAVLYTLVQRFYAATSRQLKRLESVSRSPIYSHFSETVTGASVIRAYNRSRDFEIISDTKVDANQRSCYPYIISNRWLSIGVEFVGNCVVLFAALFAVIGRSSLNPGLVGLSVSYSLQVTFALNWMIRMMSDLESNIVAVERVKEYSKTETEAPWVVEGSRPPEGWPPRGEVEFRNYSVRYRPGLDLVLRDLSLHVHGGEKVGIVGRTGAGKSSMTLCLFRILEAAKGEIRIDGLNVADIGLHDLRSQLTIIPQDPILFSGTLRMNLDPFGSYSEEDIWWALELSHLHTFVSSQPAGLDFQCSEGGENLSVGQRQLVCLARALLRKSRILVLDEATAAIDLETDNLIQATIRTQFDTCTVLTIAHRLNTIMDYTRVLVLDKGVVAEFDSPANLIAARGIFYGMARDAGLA
ATP-binding cassette sub-family C member 2, sequence (Q92887 whole entry): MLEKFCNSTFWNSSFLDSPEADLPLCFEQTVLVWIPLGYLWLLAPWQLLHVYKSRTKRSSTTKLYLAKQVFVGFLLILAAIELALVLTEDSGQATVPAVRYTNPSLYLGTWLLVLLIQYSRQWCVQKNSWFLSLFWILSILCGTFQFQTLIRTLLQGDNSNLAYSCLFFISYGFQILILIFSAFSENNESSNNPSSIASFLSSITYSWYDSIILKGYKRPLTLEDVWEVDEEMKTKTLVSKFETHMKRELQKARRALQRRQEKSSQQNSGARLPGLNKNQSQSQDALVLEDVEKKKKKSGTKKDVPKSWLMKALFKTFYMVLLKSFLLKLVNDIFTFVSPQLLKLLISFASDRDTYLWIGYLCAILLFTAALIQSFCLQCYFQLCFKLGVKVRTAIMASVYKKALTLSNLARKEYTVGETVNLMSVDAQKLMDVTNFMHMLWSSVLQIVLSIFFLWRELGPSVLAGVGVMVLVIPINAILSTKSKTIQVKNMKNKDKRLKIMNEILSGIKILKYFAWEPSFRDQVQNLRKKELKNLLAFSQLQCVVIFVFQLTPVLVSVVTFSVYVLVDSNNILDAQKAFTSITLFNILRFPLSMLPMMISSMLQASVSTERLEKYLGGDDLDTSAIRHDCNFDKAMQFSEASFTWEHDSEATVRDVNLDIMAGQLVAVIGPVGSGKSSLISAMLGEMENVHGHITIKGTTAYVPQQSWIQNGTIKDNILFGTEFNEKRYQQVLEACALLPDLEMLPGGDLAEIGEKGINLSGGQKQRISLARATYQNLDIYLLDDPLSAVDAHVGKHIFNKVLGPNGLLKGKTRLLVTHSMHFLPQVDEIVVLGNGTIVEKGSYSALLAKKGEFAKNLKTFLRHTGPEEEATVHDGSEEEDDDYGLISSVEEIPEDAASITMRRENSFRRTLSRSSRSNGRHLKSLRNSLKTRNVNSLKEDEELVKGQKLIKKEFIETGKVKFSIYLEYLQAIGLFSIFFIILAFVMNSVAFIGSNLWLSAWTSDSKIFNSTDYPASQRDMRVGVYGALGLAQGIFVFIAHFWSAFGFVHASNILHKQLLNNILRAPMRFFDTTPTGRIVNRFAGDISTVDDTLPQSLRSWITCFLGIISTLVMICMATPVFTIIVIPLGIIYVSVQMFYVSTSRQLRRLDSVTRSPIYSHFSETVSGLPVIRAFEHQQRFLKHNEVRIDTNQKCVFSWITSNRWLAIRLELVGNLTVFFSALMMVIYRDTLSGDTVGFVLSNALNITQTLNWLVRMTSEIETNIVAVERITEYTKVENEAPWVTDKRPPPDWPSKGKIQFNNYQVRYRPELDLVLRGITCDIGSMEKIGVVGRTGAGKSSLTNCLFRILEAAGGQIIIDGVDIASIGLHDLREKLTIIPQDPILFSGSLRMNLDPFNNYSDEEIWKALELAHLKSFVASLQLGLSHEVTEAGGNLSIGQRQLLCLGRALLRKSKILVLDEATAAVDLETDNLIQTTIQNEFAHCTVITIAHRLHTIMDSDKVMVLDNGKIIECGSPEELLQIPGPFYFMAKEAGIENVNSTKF
Bile salt export pump, sequence (O95342 whole entry): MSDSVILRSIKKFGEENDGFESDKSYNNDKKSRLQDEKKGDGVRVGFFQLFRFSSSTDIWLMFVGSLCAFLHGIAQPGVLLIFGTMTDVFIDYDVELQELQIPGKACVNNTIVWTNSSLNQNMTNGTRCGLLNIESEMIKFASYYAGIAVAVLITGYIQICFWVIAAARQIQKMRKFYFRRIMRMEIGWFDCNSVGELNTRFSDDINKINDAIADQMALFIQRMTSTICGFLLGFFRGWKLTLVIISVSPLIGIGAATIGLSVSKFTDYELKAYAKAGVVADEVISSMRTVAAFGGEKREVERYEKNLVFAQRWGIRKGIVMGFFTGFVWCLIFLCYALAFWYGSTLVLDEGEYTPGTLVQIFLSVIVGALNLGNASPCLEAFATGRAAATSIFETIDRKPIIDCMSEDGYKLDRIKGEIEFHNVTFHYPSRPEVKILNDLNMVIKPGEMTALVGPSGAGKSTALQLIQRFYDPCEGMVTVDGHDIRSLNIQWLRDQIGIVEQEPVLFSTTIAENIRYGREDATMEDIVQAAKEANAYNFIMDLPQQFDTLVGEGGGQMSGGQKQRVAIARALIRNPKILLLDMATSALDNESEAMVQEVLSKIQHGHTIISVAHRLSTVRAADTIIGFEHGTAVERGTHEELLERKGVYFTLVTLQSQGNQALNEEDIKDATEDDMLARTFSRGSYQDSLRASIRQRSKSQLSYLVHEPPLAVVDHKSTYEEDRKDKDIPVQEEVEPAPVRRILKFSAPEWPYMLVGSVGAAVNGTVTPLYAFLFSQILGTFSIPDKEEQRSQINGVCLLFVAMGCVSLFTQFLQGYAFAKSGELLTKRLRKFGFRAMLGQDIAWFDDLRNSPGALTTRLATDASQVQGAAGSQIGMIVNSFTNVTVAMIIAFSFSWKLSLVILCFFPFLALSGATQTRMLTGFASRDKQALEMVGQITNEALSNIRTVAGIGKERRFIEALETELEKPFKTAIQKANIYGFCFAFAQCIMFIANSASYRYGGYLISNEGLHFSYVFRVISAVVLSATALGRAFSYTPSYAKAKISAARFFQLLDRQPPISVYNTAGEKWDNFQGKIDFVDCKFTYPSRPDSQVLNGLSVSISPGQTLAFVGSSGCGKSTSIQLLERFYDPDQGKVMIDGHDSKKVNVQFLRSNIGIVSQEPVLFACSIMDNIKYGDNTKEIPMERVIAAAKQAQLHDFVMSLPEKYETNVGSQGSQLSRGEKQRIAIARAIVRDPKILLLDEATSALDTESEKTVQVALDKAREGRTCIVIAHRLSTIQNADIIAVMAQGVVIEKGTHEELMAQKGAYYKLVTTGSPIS

Question: Which Ratio [1] does the source give for `Cc1ccc(C(=O)c2cc(O)c(O)c([N+](=O)[O-])c2)cc1` [TOLCAPONE] here?
Answer: 0.263

Question: What about the AUC at 8 h [2] of the same compound?
Answer: 179 µM·h

Question: What about the Ratio [3] of the same compound?
Answer: 0.611

Question: And the IC50 (Bile salt export pump)?
Answer: 36.6 µM

Question: And the IC50 [4]?
Answer: 16.7 µM

Question: And the Ratio [5]?
Answer: 1.338

Question: What about the concentration at 8 h [6] of the same compound?
Answer: 22.3 µM

Question: And the IC50 [7]?
Answer: 85 µM

Question: Which Ratio [8] does the source give for `CC(=O)O[C@H]1C[C@@]2(C)[C@@H](C[C@@H](O)[C@H]3[C@@]4(C)CC[C@@H](O)[C@@H](C)[C@@H]4CC[C@@]32C)/C1=C(\CCC=C(C)C)C(=O)O` [FUSIDIC ACID] here?
Answer: 26.38

Question: What about the AUC at 24 h [9] of the same compound?
Answer: 6390 µM·h

Question: And the IC50 [4]?
Answer: > 133 µM

Question: And the IC50 [10]?
Answer: > 133 µM

Question: What about the concentration at 24 h [11] of the same compound?
Answer: 266 µM

Question: And the IC50 [7]?
Answer: > 133 µM

Question: For `COc1c(C)c2c(c(O)c1C/C=C(\C)CCC(=O)OCCN1CCOCC1)C(=O)OC2` [MYCOPHENOLATE MOFETIL], which IC50 (Bile salt export pump) is on record?
Answer: 76 µM

Question: And the AUC at 12 h [12]?
Answer: 45700 ng·h/mL

Question: What about the Ratio [13] of the same compound?
Answer: 49.945

Question: What about the IC50 [4] of the same compound?
Answer: 83 µM

Question: And the concentration at 12 h [14]?
Answer: 3810 µM

Question: What about the Ratio [15] of the same compound?
Answer: 45.853

Question: And the IC50 [10]?
Answer: > 133 µM

Question: What about the IC50 [7] of the same compound?
Answer: > 133 µM

Question: What does the source list for `CC(C)OC(=O)C(C)(C)Oc1ccc(C(=O)c2ccc(Cl)cc2)cc1` [FENOFIBRATE]?
Answer: concentration at 24 h [16]: 14.9 µM; IC50 [4]: > 133 µM; IC50 [10]: > 133 µM; IC50 [7]: > 133 µM; AUC at 24 h (clinical): 357 µM·h

Question: For `CC(C)c1nc(CN(C)C(=O)N[C@H](C(=O)N[C@@H](Cc2ccccc2)C[C@H](O)[C@H](Cc2ccccc2)NC(=O)OCc2cncs2)C(C)C)cs1` [RITONAVIR], which AUC at 12 h [17] is on record?
Answer: 413 µM·h

Question: And the concentration at 12 h [18]?
Answer: 34.4 µM

Question: What does the source list for `CC(=O)O[C@H]1C(=O)[C@@]2(C)[C@H]([C@H](OC(=O)c3ccccc3)[C@]3(O)C[C@H](OC(=O)[C@H](O)[C@@H](NC(=O)c4ccccc4)c4ccccc4)C(C)=C1C3(C)C)[C@]1(OC(C)=O)CO[C@@H]1C[C@@H]2O` [PACLITAXEL]?
Answer: Css (Homo sapiens): 14.759 µM; IC50 [4]: > 133 µM; AUC at 1 h [19]: 14.8 µM·h; IC50 [10]: > 133 µM; IC50 [7]: > 133 µM
